This data set in a line: Post-prandial study: carotenoid levels in triglyceride-rich blood fractions after a tomato-based meal with plant sterols. The data set is classed as in vivo, human. The note with it: 20 healthy adult volunteers; single meal with 130 g chunky tomato sauce (5.2 mg lycopene, 2.2 mg beta-carotene) and 2.2 g plant sterols; blood samples over 8 hours; pre-meal level taken as zero. Here is the method: A post-prandial study was undertaken, in which 20 healthy, adult, human volunteers, 10 male, 10 female (age 30-65) were provided with an early-morning tomato-based meal, after which at regular intervals and for a period of 8 hours blood samples were taken. In the triglyceride-rich fractions (mainly consisting of chylomicrons that carry the digested fat and fat-soluble components from the intestine to the liver) of those blood samples the levels of lycopene, beta-carotene and also vitamin A were determined (using straight-phase HPLC analysis using a nucleosil cyanyl-bonded column). The levels of vitamin A (measured as retinyl palmitate) and beta-carotene can be taken together as a measure for beta-carotene uptake, as during absorption (or shortly thereafter) beta-carotene is partly converted into vitamin A. The integrated post-prandial response can then be used to estimate the bioavailability of beta-carotene and lycopene from a meal.
The meal consisted of 200 g of cooked macaroni, 130 g of chunky tomato sauce (containing more chunks of tomato flesh than most commercial tomato sauces) made of yellow, orange and super red varieties, 80 g of lean cooked ham (gammon), 20 g of white bread, and 11.6 g of sunflower oil (stripped, i.e. low in antoixidants) and 2.2 g of plansterols. […]

On to `CC1=C(/C=C/C(C)=C/C=C/C(C)=C/C=C/C=C(C)/C=C/C=C(C)/C=C/C2=C(C)CCCC2(C)C)C(C)(C)CCC1` [beta-carotene], for which the “post-prandial response (level in triglyceride-rich blood fractions, FIG. 1)” value is recorded as “clear post-prandial response”.
The same measure for `CC(C)=CCC/C(C)=C/C=C/C(C)=C/C=C/C(C)=C/C=C/C=C(C)/C=C/C=C(C)/C=C/C=C(\C)CCC=C(C)C` [lycopene]: “clear post-prandial response”.

Values taken from US20020061346A1, “FOOD COMPOSITION” (priority 1998, published 2002).
